How the values were obtained:
[1] = test system: nitrosoamine-induced pancreatic cancer; test: in vivo hemorrhagic necrosis effect; set-up: species or system hamsters; key to Hemorrhagic necrosis effect: four scales of G4, G3, G2 and G1; four scales of G4, G3, G2 and G1; four scales of G4, G3, G2 and G1; four scales of G4, G3, G2 and G1; details: for Hemorrhagic necrosis effect: intensity of hemorrhagic necrosis at 24 hours following i.v. administration, and pathological study; for photograph of cancer masses (Fig. 3): 24 hours after administration
Method: Cancer bearing hamsters of Experiment 1 were i.v. administered the test substance C6-Ga-DP-diAsp (10) (10 mg/ml) which had been diluted with phosphate buffer at 25 mg/kg bodyweight and 12.5 mg/kg bodyweight respectively. The animals were exsanguinated and autopsied at 24 hours after administration, and observed.
The evaluation was based on the four scales of G4, G3, G2 and G1.

[2] = test system: nitrosoamine-induced pancreatic cancer; test: laser irradiation to the extirpated organ (excited fluorescent spectrum, N2-PLS measurement), tumor to tissue ratio; format: in vivo, Golden hamsters; details: i.v. 25 mg/kg bodyweight, organs extirpated at 24 hours after administration
Method: Golden hamsters (males, 5 per group, bodyweight approximately 150 g) were implanted subcutaneously tumor cells of the nitrosoamine-induced pancreatic cancer. After 14 to 21 days following implantation, animals were intravenously (i.v.) administered the test substance EG-Ga-DP-diGly (10 mg/ml) which had been diluted with phosphate buffer at 25 mg/kg bodyweight. At 24 hours after administration, the organs including the tumor were extirpated, irradiated with N2-pulsed laser (N2, 337 nm, 2 ns, 400 - 1000 nm), and measured of excited fluorescent spectrum. The wavelengths of 600 - 900 nm were studied using the peak wavelength of NADH at 470 nm as a reference. (N2-PLS measurement). […] (Tumor to tissue ratio).
Excited fluorescent spectra of the organs extirpated at 24 hours after administration were measured, and the peak wavelength at 600 - 900 nm was calculated by setting the peak wavelength at 470 nm as the reference 1. As fluorescence in Mn, Fe and Cu complexes is not sufficiently intense as to enable N2-PLS measurement, the extraction method was applied to these compounds. At 24 hours following administration, the organs were extracted with an organic solvent (such as chloroform-methanol) via acetone powder, and the obtained extract was measured of UV or HPLC to calculate the tumor to tissue ratio.

Row | Compound | Hemorrhagic necrosis effect [1] | other results
1 | CC(C)=CCCC(C)CCOC(C)C1=C(C)C2=Cc3c(C(C)OCCC(C)CCC=C(C)C)c(C)c4[n]3[Mn][n]3c(c(C)c(CCC(=O)NC(CC(=O)O)C(=O)O)c3=CC3=NC(=C4)C(C)=C3CCC(=O)NC(CC(=O)O)C(=O)O)=CC1=N2 (stereo not shown) [(43) C10(Citro)-Mn-DP-diAsp, 2,4-bis(1-citronellyloxyethyl)-Mn-deuteroporphynyl diaspartic acid] | G3 | –
2 | CC(C)=CCC/C(C)=C/COC(C)C1=C(C)C2=Cc3c(C(C)OC/C=C(\C)CCC=C(C)C)c(C)c4[n]3[Mn][n]3c(c(C)c(CCC(=O)NC(CC(=O)O)C(=O)O)c3=CC3=NC(=C4)C(C)=C3CCC(=O)NC(CC(=O)O)C(=O)O)=CC1=N2 (stereo not shown) [(42) C10(Gera)-Mn-DP-diAsp, 2,4-bis(1-geranyloxyethyl)-Mn-deuteroporphynyl diaspartic acid] | G3 | photograph of cancer masses (Fig. 3) [1]: hemorrhagic necrosis
3 | CCCCCCCCOC(C)C1=C(C)C2=Cc3c(C(C)OCCCCCCCC)c(C)c4[n]3[Fe][n]3c(c(C)c(CCC(=O)NC(CC(=O)O)C(=O)O)c3=CC3=NC(=C4)C(C)=C3CCC(=O)NC(CC(=O)O)C(=O)O)=CC1=N2 (stereo not shown) [(62) C8-Fe-DP-diAsp, 2,4-bis(1-octyloxyethyl)-Fe-deuteroporphynyl diaspartic acid] | G3 | photograph of cancer masses (Fig. 3) [1]: hemorrhagic necrosis
4 | CCCCCCCCCCCCOC(C)C1=C(C)C2=Cc3c(C(C)OCCCCCCCCCCCC)c(C)c4[n]3[Cu][n]3c(c(C)c(CCC(=O)NC(CC(=O)O)C(=O)O)c3=CC3=NC(=C4)C(C)=C3CCC(=O)NC(CC(=O)O)C(=O)O)=CC1=N2 (stereo not shown) [(70) C12-Cu-DP-diAsp, 2,4-bis(1-dodecyloxyethyl)-Cu-deuteroporphynyl diaspartic acid] | G1 | –
5 | CCCCCCCCCCOC(C)C1=C(C)C2=Cc3c(C(C)OCCCCCCCCCC)c(C)c4[n]3[Mn][n]3c(c(C)c(CCC(=O)NC(Cc5ccccc5)C(=O)NC(CC(=O)O)C(=O)O)c3=CC3=NC(=C4)C(C)=C3CCC(=O)NC(Cc3ccccc3)C(=O)NC(CC(=O)O)C(=O)O)=CC1=N2 (stereo not shown) [(41) C10-Mn-DP-diPhe-diAsp, 2,4-bis(1-decyloxyethyl)-Mn-deuteroporphynyl diphenylalanyldiaspartic acid] | G2 | –
6 | CC1=C(CCC(=O)NC(CC(=O)O)C(=O)O)c2cc3[nH]c(cc4nc(cc5[nH]c(cc1n2)c(C(C)OCC1CCCO1)c5C)C(C(C)OCC1CCCO1)=C4C)c(C)c3CCC(=O)NC(CC(=O)O)C(=O)O.[Mn] (stereo not shown) [(55) H4Fran-Mn-DP-diAsp, 2,4-bis(1-tetrahydrofurfuryloxyethyl)-Mn-deuteroporphynyl diaspartic acid] | G2 | –
7 | CCCCCCCCCCOC(C)C1=C(C)C2=Cc3c(C(C)OCCCCCCCCCC)c(C)c4[n]3[Mn][n]3c(c(C)c(CCC(=O)NCC(=O)NC(CC(=O)O)C(=O)O)c3=CC3=NC(=C4)C(C)=C3CCC(=O)NCC(=O)NC(CC(=O)O)C(=O)O)=CC1=N2 (stereo not shown) [(39) C10-Mn-DP-diGly-diAsp, 2,4-bis(1-decyloxyethyl)-Mn-deuteroporphynyl diglycyldiaspartic acid] | G2 | –
8 | CCCCCCCCCCCCOC(C)C1=C(C)C2=Cc3c(C(C)OCCCCCCCCCCCC)c(C)c4[n]3[Fe][n]3c(c(C)c(CCC(=O)NC(CC(=O)O)C(=O)O)c3=CC3=NC(=C4)C(C)=C3CCC(=O)NC(CC(=O)O)C(=O)O)=CC1=N2 (stereo not shown) [(64) C12-Fe-DP-diAsp, 2,4-bis(1-dodecyloxyethyl)-Fe-deuteroporphynyl diaspartic acid] | G3 | –
9 | CC1=C(CCC(=O)NC(CC(=O)O)C(=O)O)C2=NC1=Cc1c(C)c(C(C)OCCO)c3[n]1[Ga][n]1c(c(C)c(CCC(=O)NC(CC(=O)O)C(=O)O)c1=C2)=CC1=NC(=C3)C(C)=C1C(C)OCCO (stereo not shown) [(3) EG-Ga-DP-diAsp, 2,4-bis[1-(2-hydroxyethyloxy)ethyl]-Ga-deuteroporphynyl diaspartic acid] | – | tumor/tissue cancer/ kidney [2]: 3.45; tumor/tissue cancer/ liver [2]: 3.00; tumor/tissue cancer/ lung [2]: 2.87

Source: patent publication EP0350948B1, “Porphyrin derivatives” (TOYOHAKKA KOGYO KABUSHIKI KAISHA, priority 1988, dated 1990)
